Measured values published in patent US9833497B2, “Human originated EGF domain proteins and use of the same” (CHENGDU SOURCEBIO LIMITED-LIABILITY COMPANY, priority 2013, dated 2017).

Columns and labels:
Format in all cases: cell-based
Serratia marcescens = experiment: MIC against Gram-negative bacteria: Serratia marcescens; settings: 5×10^5 CFU/mL
How it was run: (§1)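 Read-out is absence of bacterial growth, with MIC set at the lowest recombinant protein concentration achieving it. Bacteria, pre-grown in LB to McFarland 0.5 and resuspended, were exposed at 5×10^5 CFU/mL to two-fold diluted human EGF domain proteins in triplicate at 37° C, 175 rpm.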

E. coli DH5α = experiment: Antibacterial activity: MIC and growth curve against E. coli DH5α in 96-well plate; settings: minimal inhibitory concentration against E. coli DH5α; 96-well plate, 5×10^5 CFU/mL, 37° C., judged after 8 h
How it was run: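 MIC taken as lowest protein level with no bacterial growth, tracked by A600 every 30 min during 37 °C, 175 rpm culture. Two-fold protein series 50-12.5 μg/mL final, triplicate wells, against 5×10^5 CFU/mL of LB-washed mid-log cells.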

Citrobacter diversus = experiment: MIC against Gram-negative bacteria: Citrobacter diversus; settings: 5×10^5 CFU/mL
How it was run: as §1

E. coli BL21 = experiment: MIC against Gram-negative bacteria: E. coli BL21; settings: 5×10^5 CFU/mL
How it was run: as §1

Pseudomonas aeruginosa = experiment: MIC against Gram-negative bacteria: Pseudomonas aeruginosa; settings: 5×10^5 CFU/mL
How it was run: as §1

Proteus mirabilis = experiment: MIC against Gram-negative bacteria: Proteus mirabilis; settings: 5×10^5 CFU/mL
How it was run: as §1

Enterobacter cloacae = experiment: MIC against Gram-negative bacteria: Enterobacter cloacae; settings: 5×10^5 CFU/mL
How it was run: as §1

Proteus vulgaris = experiment: MIC against Gram-negative bacteria: Proteus vulgaris; settings: 5×10^5 CFU/mL
How it was run: as §1

Moraxella catarrhalis = experiment: MIC against Gram-negative bacteria: Moraxella catarrhalis; settings: 5×10^5 CFU/mL
How it was run: as §1

Aeromonas hydrophila = experiment: MIC against Gram-negative bacteria: Aeromonas hydrophila; settings: 5×10^5 CFU/mL
How it was run: as §1

Klebsiella pneumonia = experiment: MIC against Gram-negative bacteria: Klebsiella pneumonia; settings: 5×10^5 CFU/mL
How it was run: as §1

[1] = Serratia marcescens, 96-well plate, 37° C., 10 h
[2] = Citrobacter diversus, 96-well plate, 37° C., 10 h
[3] = Pseudomonas aeruginosa, 96-well plate, 37° C., 10 h
[4] = Proteus mirabilis, 96-well plate, 37° C., 10 h
[5] = Enterobacter cloacae, 96-well plate, 37° C., 10 h
[6] = Proteus vulgaris, 96-well plate, 37° C., 10 h
[7] = Moraxella catarrhalis, 96-well plate, 37° C., 10 h
[8] = Aeromonas hydrophila, 96-well plate, 37° C., 10 h
[9] = Klebsiella pneumonia, 96-well plate, 37° C., 10 h
[10] = Serratia marcescens, 10 h cultivation at 37° C.
[11] = Citrobacter diversus, 10 h cultivation at 37° C.
[12] = Pseudomonas aeruginosa, 10 h cultivation at 37° C.
[13] = Proteus mirabilis, 10 h cultivation at 37° C.
[14] = Enterobacter cloacae, 10 h cultivation at 37° C.
[15] = Proteus vulgaris, 10 h cultivation at 37° C.
[16] = Moraxella catarrhalis, 10 h cultivation at 37° C.
[17] = Aeromonas hydrophila, 10 h cultivation at 37° C.
[18] = Klebsiella pneumonia, 10 h cultivation at 37° C.
[19] = 10 h cultivation at 37° C., two-fold serial dilution

Substance: PRT33 (ACELHTFGRTCKERCSGQEGCKSYVFCLPDPYGCSCATGWKGLQCN; listed as Homo sapiens)
- MIC (μg/mL) S. marcescens (Serratia marcescens; [1]): 12.5 µg/mL
- MIC (E. coli DH5α): 12.5 µg/mL
- MIC (μg/mL) C. diversus (Citrobacter diversus; [2]): 12.5 µg/mL
- MIC (μg/mL) E. coli BL21 (E. coli BL21; 96-well plate, 37° C., 10 h): 50 µg/mL
- MIC (μg/mL) P. aeruginosa (Pseudomonas aeruginosa; [3]): 12.5 µg/mL
- MIC (μg/mL) P. mirabilis (Proteus mirabilis; [4]): 25 µg/mL
- MIC (μg/mL) E. cloacae (Enterobacter cloacae; [5]): 25 µg/mL
- MIC (μg/mL) P. vulgaris (Proteus vulgaris; [6]): 25 µg/mL
- MIC (μg/mL) M. catarrhalis (Moraxella catarrhalis; [7]): 12.5 µg/mL
- MIC (μg/mL) A. hydrophila (Aeromonas hydrophila; [8]): 12.5 µg/mL
- MIC (μg/mL) K. pneumonia (Klebsiella pneumonia; [9]): 12.5 µg/mL

Substance: PRT79 (LPDPCDSNPCPANSYCSNDWDSYSCSCDPGYYGDNC; listed as Homo sapiens)
- MIC (μg/mL) S. marcescens (Serratia marcescens; [1]): 50 µg/mL
- MIC (E. coli DH5α): 50 µg/mL
- MIC (μg/mL) C. diversus (Citrobacter diversus; [2]): 12.5 µg/mL
- MIC (μg/mL) E. coli BL21 (E. coli BL21; 96-well plate, 37° C., 10 h): 25 µg/mL
- MIC (μg/mL) P. aeruginosa (Pseudomonas aeruginosa; [3]): 12.5 µg/mL
- MIC (μg/mL) P. mirabilis (Proteus mirabilis; [4]): 50 µg/mL
- MIC (μg/mL) E. cloacae (Enterobacter cloacae; [5]): 12.5 µg/mL
- MIC (μg/mL) P. vulgaris (Proteus vulgaris; [6]): 12.5 µg/mL
- MIC (μg/mL) M. catarrhalis (Moraxella catarrhalis; [7]): 12.5 µg/mL
- MIC (μg/mL) A. hydrophila (Aeromonas hydrophila; [8]): 25 µg/mL
- MIC (μg/mL) K. pneumonia (Klebsiella pneumonia; [9]): 25 µg/mL

Substance: PRT1483 (DIDECVTSSCEGHCVNTEGGFVCECGPGMQLSADRHSCQ; listed as Homo sapiens)
- MIC against S. marcescens (Serratia marcescens; [10]): 25 µg/mL
- MIC (E. coli DH5α): 12.5 µg/mL
- MIC against C. diversus (Citrobacter diversus; [11]): 50 µg/mL
- MIC against E. coli BL21 (E. coli BL21; 10 h cultivation at 37° C.): 25 µg/mL
- MIC against P. aeruginosa (Pseudomonas aeruginosa; [12]): 50 µg/mL
- MIC against P. mirabilis (Proteus mirabilis; [13]): 12.5 µg/mL
- MIC against E. cloacae (Enterobacter cloacae; [14]): 12.5 µg/mL
- MIC against P. vulgaris (Proteus vulgaris; [15]): 25 µg/mL
- MIC against M. catarrhalis (Moraxella catarrhalis; [16]): 25 µg/mL
- MIC against A. hydrophila (Aeromonas hydrophila; [17]): 25 µg/mL
- MIC against K. pneumonia (Klebsiella pneumonia; [18]): 25 µg/mL

Substance: PRT1408 (NEICSVDCGSHGVCMGGTCRCEEGWTGPACNQ; listed as Homo sapiens)
- MIC against S. marcescens (Serratia marcescens; [10]): 25 µg/mL
- MIC (E. coli DH5α): 25 µg/mL
- MIC against C. diversus (Citrobacter diversus; [11]): 12.5 µg/mL
- MIC against E. coli BL21 (E. coli BL21; 10 h cultivation at 37° C.): 12.5 µg/mL
- MIC against P. aeruginosa (Pseudomonas aeruginosa; [12]): 25 µg/mL
- MIC against P. mirabilis (Proteus mirabilis; [13]): 12.5 µg/mL
- MIC against E. cloacae (Enterobacter cloacae; [14]): 25 µg/mL
- MIC against P. vulgaris (Proteus vulgaris; [15]): 12.5 µg/mL
- MIC against M. catarrhalis (Moraxella catarrhalis; [16]): 12.5 µg/mL
- MIC against A. hydrophila (Aeromonas hydrophila; [17]): 12.5 µg/mL
- MIC against K. pneumonia (Klebsiella pneumonia; [18]): 12.5 µg/mL

Substance: PRT1125 (LCDQCVTSPGCLHGLCGEPGQCICTDGWDGELCD; listed as Homo sapiens)
- MIC S. marcescens (Serratia marcescens; [19]): 25 µg/mL
- MIC (E. coli DH5α): 25 µg/mL
- MIC C. diversus (Citrobacter diversus; [19]): 12.5 µg/mL
- MIC E. coli BL21 (E. coli BL21; [19]): 12.5 µg/mL
- MIC P. aeruginosa (Pseudomonas aeruginosa; [19]): 12.5 µg/mL
- MIC P. mirabilis (Proteus mirabilis; [19]): 12.5 µg/mL
- MIC E. cloacae (Enterobacter cloacae; [19]): 12.5 µg/mL
- MIC P. vulgaris (Proteus vulgaris; [19]): 12.5 µg/mL
- MIC M. catarrhalis (Moraxella catarrhalis; [19]): 12.5 µg/mL
- MIC A. hydrophila (Aeromonas hydrophila; [19]): 12.5 µg/mL
- MIC K. pneumonia (Klebsiella pneumonia; [19]): 12.5 µg/mL

Substance: PRT694 (DVDECRRVPPPCAPGRCENSPGSFRCVCGPGFRAGPRAAECL; listed as Homo sapiens)
- MIC S. marcescens (Serratia marcescens; 96-well plate, 37° C., 10 h): 50 µg/mL
- MIC (E. coli DH5α): 50 µg/mL
- MIC C. diversus (Citrobacter diversus; 96-well plate, 37° C., 10 h): 12.5 µg/mL
- MIC E. coli BL21 (E. coli BL21; 96-well plate, 37° C., 10 h): 25 µg/mL
- MIC P. aeruginosa (Pseudomonas aeruginosa; 96-well plate, 37° C., 10 h): 50 µg/mL
- MIC P. mirabilis (Proteus mirabilis; 96-well plate, 37° C., 10 h): 50 µg/mL
- MIC E. cloacae (Enterobacter cloacae; 96-well plate, 37° C., 10 h): 50 µg/mL
- MIC P. vulgaris (Proteus vulgaris; 96-well plate, 37° C., 10 h): 12.5 µg/mL
- MIC M. catarrhalis (Moraxella catarrhalis; 96-well plate, 37° C., 10 h): 25 µg/mL
- MIC A. hydrophila (Aeromonas hydrophila; 96-well plate, 37° C., 10 h): 25 µg/mL
- MIC K. pneumonia (Klebsiella pneumonia; 96-well plate, 37° C., 10 h): 25 µg/mL

Substance: PRT790 (HGPQCEQRCPCQNGGVCHHVTGECSCPSGWMGTVCG; listed as Homo sapiens)
- MIC (μg/mL) S. marcescens (Serratia marcescens; S. marcescens, 10 h cultivation at 37° C.): 12.5 µg/mL
- MIC (E. coli DH5α): 25 µg/mL
- MIC (μg/mL) C. diversus (Citrobacter diversus; C. diversus, 10 h cultivation at 37° C.): 50 µg/mL
- MIC (μg/mL) E. coli BL21 (E. coli BL21; 10 h cultivation at 37° C.): 50 µg/mL
- MIC (μg/mL) P. aeruginosa (Pseudomonas aeruginosa; P. aeruginosa, 10 h cultivation at 37° C.): 25 µg/mL
- MIC (μg/mL) P. mirabilis (Proteus mirabilis; P. mirabilis, 10 h cultivation at 37° C.): 12.5 µg/mL
- MIC (μg/mL) E. cloacae (Enterobacter cloacae; E. cloacae, 10 h cultivation at 37° C.): 12.5 µg/mL
- MIC (μg/mL) P. vulgaris (Proteus vulgaris; P. vulgaris, 10 h cultivation at 37° C.): 50 µg/mL
- MIC (μg/mL) M. catarrhalis (Moraxella catarrhalis; M. catarrhalis, 10 h cultivation at 37° C.): 25 µg/mL
- MIC (μg/mL) A. hydrophila (Aeromonas hydrophila; A. hydrophila, 10 h cultivation at 37° C.): 25 µg/mL
- MIC (μg/mL) K. pneumonia (Klebsiella pneumonia; K. pneumonia, 10 h cultivation at 37° C.): 25 µg/mL
